Assay results taken from patent US11691962B2 (eXIthera Pharmaceuticals, Inc., priority 2018, dated 2023).

Target: Factor XIa (Homo sapiens (Human), UniProt P03951)
Test: Factor XIa enzyme inhibition assay (dose response, fluorogenic AMC substrate)
Assay type: biochemical
Conditions: read-out: hFXIa IC50
Method: • Assay buffer: 20 mM Hepes, pH 7.4; 150 mM NaCl; 0.02% Tween 20 • Compounds: 10 mM stocks in DMSO • Substrate: 20 mM Glp-Pro-Arg-AMC, 25 mg/2.3 mL H2O (store at +4° C.) [Factor XIa, thrombin, and trypsin] • 20 mM Pro-Phe-Arg-AMC (Bachem I-1295), 25 mg/2.2 mL H2O • or Boc-Leu-Gly-Arg-AMC (Bachem I-1105), 25 mg/2.07 mL H2O • (store at +4° C.) [Factor Xa] • Enzyme: Factor XIa; 0.25 μM in 50% glycerol (20 μg/mL) • Trypsin; 0.2 μM in 50% glycerol (4.8 μg/mL) • Thrombin; 0.2 μM in 50% glycerol (7.34 μg/mL) • Factor Xa; 0.2 μM in 50% glycerol (9.2 μg/mL) • These stocks are aliquoted (˜100 μL/aliquot) and stored at −20° C. Methods: • 1. Dilute the substrate to 100 μM in assay buffer (30 μL/6 mL). The enzyme is diluted to 0.5 nM just prior to use (12 μL/6 mL for Factor XIa; 15 μL/6 mL for all of the rest.) • 2. Pipette 50 μL of substrate into each well of the 96 well (12×8) microtiter plate. (Column 1 is used as the 100% activity control and receives no compound, and Column 12 is the blank and receives no enzyme.) Add an additional 46 μL to column 2. • 3. Pipette 4 μL of each compound into the appropriate well in column 2 of the plate (unknowns assayed in triplicate, standard assayed in duplicate). The final compound concentration will be […] of the stock. • 4. Serially two-fold dilute the compound by mixing the sample in column 2, removing 50 μL to the next well (column 3), mix and remove to column 4, etc. until column 11. After mixing column 11, remove 50 μL and discard. • 5. Pipette 50 μL of buffer into column 12. Initiate the reaction by adding 50 μL of enzyme solution to each well of columns 1-11 as rapidly as possible. • 6. Read the plate in a spectrophotometer (SpectraMax) at 30° C., wherein each well is measured every 60 s for 30 min. For Factor Xa assays, each well is measured every 1 min for a total of 60 min. • 7. For Factor XIa assays, the compounds are assayed, in duplicate, at 3 different starting concentrations, 20, 2, and 0.2 μM; 1:10, 1:100, and 1:1000 dilution of 10 mM stock or at 2, 0.2, and 0.02 μM; 1:100, 1:1000, and 1:10,000 dilution of 10 mM stock. Data for each concentration are combined for graphing and data fitting. • 8. Data can be used both for estimation of IC50 and for estimation of Kon.
Potential inhibitors of Factor XIa were evaluated using the following assay.
PyroGlu-Pro-Arg-7-methylaminocourin (AMC), available from CPC Scientific, Inc., is based on the substrate pyro-Glu-Pro-Arg-pNA (S-2366), available from Diapharma Group, Inc. (Columbus, Ohio), wherein the p-nitroanaline group is replaced with 7-methylaminocoumarin (AMC).
The final concentration of the substrate in the assay was 50 μM, and the final concentration of the enzyme was 0.25 nM. Inhibitors were tested by serial dilution over an appropriate range to yield a dose response curve for determination of the inhibitors' IC50 value. The assay mixture was read every minute for 30 minutes in order to generate progress curves. The plates were read in a Spectramax m5 Multimode Plate Reader (Molecular Devices LLC, Sunnyvale, Calif.). Dose response curves were fit to Equation 1 below in which A is the maximum inhibition, B is the minimum inhibition, C is the IC50, and D is the Hill coefficient. Y=[(A−B)/(1+(X/C)^D)]+B (Equation 1)

Sequence of Factor XIa (P03951 388-625): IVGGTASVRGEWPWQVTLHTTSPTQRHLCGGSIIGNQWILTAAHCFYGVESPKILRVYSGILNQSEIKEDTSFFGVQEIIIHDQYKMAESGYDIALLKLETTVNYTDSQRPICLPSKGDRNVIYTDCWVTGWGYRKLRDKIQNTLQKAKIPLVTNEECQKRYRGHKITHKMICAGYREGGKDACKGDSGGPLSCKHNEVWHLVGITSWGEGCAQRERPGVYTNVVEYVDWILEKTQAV
Sequence of Factor XIa (P03951 19-387 partner): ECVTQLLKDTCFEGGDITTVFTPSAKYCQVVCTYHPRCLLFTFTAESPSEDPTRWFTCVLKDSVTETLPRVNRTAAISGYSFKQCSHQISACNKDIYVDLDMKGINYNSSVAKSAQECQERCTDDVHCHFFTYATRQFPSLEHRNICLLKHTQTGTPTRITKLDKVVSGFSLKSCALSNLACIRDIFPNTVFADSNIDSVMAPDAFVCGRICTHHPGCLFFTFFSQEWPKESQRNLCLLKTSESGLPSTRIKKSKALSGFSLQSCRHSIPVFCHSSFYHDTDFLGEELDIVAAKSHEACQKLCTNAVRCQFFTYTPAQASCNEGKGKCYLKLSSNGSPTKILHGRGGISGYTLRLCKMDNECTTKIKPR

CC[C@@H](NC(=O)N1C(=O)[C@H](Cc2ccnc(N)c2)[C@H]1C(=O)N(C)c1nccn1C)c1ccc(C)c(C)c1F [Compound 1-218, (2S,3R)-3-((2-aminopyridin-4-yl)methyl)-N2-(1-methyl-1H-imidazol-2-yl)-N1-((R)-1-(2-fluoro-3,4-dimethylphenyl)propyl)-N2-methyl-4-oxoazetidine-1,2-dicarboxamide]
IC50: < 10 nM

CC[C@@H](NC(=O)N1C(=O)[C@H](Cc2ccnc(N)c2)[C@H]1C(=O)N(C)c1nccn1C)c1ccc(F)c(F)c1C [Compound 1-212, (2S,3R)-3-((2-aminopyridin-4-yl)methyl)-N2-(1-methyl-1H-imidazol-2-yl)-N1-((R)-1-(3,4-difluoro-2-methylphenyl)propyl)-N2-methyl-4-oxoazetidine-1,2-dicarboxamide]
IC50: < 10 nM

CC[C@@H](NC(=O)N1C(=O)[C@H](Cc2cc(C)nc(N)c2)[C@H]1C(=O)N(C)c1nnco1)c1ccccc1 [Compound 1-187, (2S,3R)-3-((2-amino-6-methylpyridin-4-yl)methyl)-N2-(1,3,4-oxadiazol-2-yl)-N1-((R)-1-phenylpropyl)-N2-methyl-4-oxoazetidine-1,2-dicarboxamide]
IC50: < 10 nM

CC[C@@H](NC(=O)N1C(=O)[C@H](Cc2ccnc(N)c2)[C@H]1C(=O)N(C)c1ccnn1C)c1ccc(F)c(C)c1 [Compound 1-214, (2S,3R)-3-((2-aminopyridin-4-yl)methyl)-N2-(1-methyl-1H-pyrazol-5-yl)-N1-((R)-1-(4-fluoro-3-methylphenyl)propyl)-N2-methyl-4-oxoazetidine-1,2-dicarboxamide]
IC50: < 10 nM

CC[C@@H](NC(=O)N1C(=O)[C@H](Cc2ccnc(N)c2)[C@H]1C(=O)N(C)c1ccnn1C)c1ccc(C)c(F)c1F [Compound 1-202, (2S,3R)-3-((2-aminopyridin-4-yl)methyl)-N2-(1-methyl-1H-pyrazol-5-yl)-N1-((R)-1-(2,3-difluoro-4-methylphenyl)propyl)-N2-methyl-4-oxoazetidine-1,2-dicarboxamide]
IC50: < 10 nM

CC[C@@H](NC(=O)N1C(=O)[C@H](Cc2ccnc(N)c2)[C@H]1C(=O)N(C)c1c(C)cnn1C)c1ccccc1 [Compound 1-78, (2S,3R)-3-((2-aminopyridin-4-yl)methyl)-N2-(1,4-dimethyl-1H-pyrazol-5-yl)-N1-((R)-1-phenylpropyl)-N2-methyl-4-oxoazetidine-1,2-dicarboxamide]
IC50: 10 to 100 nM

CC[C@@H](NC(=O)N1C(=O)[C@H](Cc2cc(C)nc(N)c2)[C@H]1C(=O)N(C)c1ccn(C)n1)c1ccc(C)c(Cl)c1 [Compound 1-147, (2S,3R)-3-((2-amino-6-methylpyridin-4-yl)methyl)-N2-(1-methyl-1H-pyrazol-3-yl)-N1-((R)-1-(3-chloro-4-methylphenyl)propyl)-N2-methyl-4-oxoazetidine-1,2-dicarboxamide]
IC50: < 10 nM

CC[C@@H](NC(=O)N1C(=O)[C@H](Cc2cc(C)nc(N)c2)[C@H]1C(=O)N(C)c1ccnn1C)c1ccc(F)cc1 [Compound 1-156, (2S,3R)-3-((2-amino-6-methylpyridin-4-yl)methyl)-N2-(1-methyl-1H-pyrazol-5-yl)-N1-((R)-1-(4-fluorophenyl)propyl)-N2-methyl-4-oxoazetidine-1,2-dicarboxamide]
IC50: < 10 nM

CC[C@@H](NC(=O)N1C(=O)[C@H](Cc2ccnc(N)c2)[C@H]1C(=O)N(C)c1ccnn1C)c1cc(F)c(F)c(F)c1 [Compound 1-204, (2S,3R)-3-((2-aminopyridin-4-yl)methyl)-N2-(1-methyl-1H-pyrazol-5-yl)-N1-((R)-1-(3,4,5-trifluorophenyl)propyl)-N2-methyl-4-oxoazetidine-1,2-dicarboxamide]
IC50: < 10 nM

CC[C@@H](NC(=O)N1C(=O)[C@H](Cc2cc(C)nc(N)c2)[C@H]1C(=O)N(C)c1cnn(C)c1)c1ccc(C)cc1 [Compound 1-181, (2S,3R)-3-((2-amino-6-methylpyridin-4-yl)methyl)-N2-(1-methyl-1H-pyrazol-4-yl)-N1-((R)-1-(4-methylphenyl)propyl)-N2-methyl-4-oxoazetidine-1,2-dicarboxamide]
IC50: 10 to 100 nM

CC[C@@H](NC(=O)N1C(=O)[C@H](Cc2cc(C)nc(N)c2)[C@H]1C(=O)N(C)c1cnn(C)c1)c1ccc(C)c(F)c1 [Compound 1-172, (2S,3R)-3-((2-amino-6-methylpyridin-4-yl)methyl)-N2-(1-methyl-1H-pyrazol-4-yl)-N1-((R)-1-(3-fluoro-4-methylphenyl)propyl)-N2-methyl-4-oxoazetidine-1,2-dicarboxamide]
IC50: < 10 nM

CC[C@@H](NC(=O)N1C(=O)[C@H](Cc2ccnc(N)c2)[C@H]1C(=O)N(C)c1nncn1C)c1ccccc1 [Compound 1-165, (2S,3R)-3-((2-aminopyridin-4-yl)methyl)-N2-(4-methyl-4H-1,2,4-triazol-3-yl)-N1-((R)-1-phenylpropyl)-N2-methyl-4-oxoazetidine-1,2-dicarboxamide]
IC50: 10 to 100 nM

CC[C@@H](NC(=O)N1C(=O)[C@H](Cc2ccnc(N)c2)[C@H]1C(=O)N(C)c1cnn(C)c1)c1cc(C)c(F)c(C)c1 [Compound 1-206, (2S,3R)-3-((2-aminopyridin-4-yl)methyl)-N2-(1-methyl-1H-pyrazol-4-yl)-N1-((R)-1-(3,5-dimethyl-4-fluorophenyl)propyl)-N2-methyl-4-oxoazetidine-1,2-dicarboxamide]
IC50: < 10 nM

CC(C)[C@@H](NC(=O)N1C(=O)[C@H](Cc2ccnc(N)c2)[C@H]1C(=O)N(C)c1nccn1C)c1ccccc1 [Compound 1-85, (2S,3R)-3-((2-aminopyridin-4-yl)methyl)-N2-(1-methyl-1H-imidazol-2-yl)-N1-((R)-1-phenyl-2-methylpropyl)-N2-methyl-4-oxoazetidine-1,2-dicarboxamide]
IC50: 10 to 100 nM

CC[C@@H](NC(=O)N1C(=O)[C@H](Cc2cc(C)nc(N)c2)[C@H]1C(=O)N(C)c1ccn(C)n1)c1ccc(C)c(C)c1 [Compound 1-145, (2S,3R)-3-((2-amino-6-methylpyridin-4-yl)methyl)-N2-(1-methyl-1H-pyrazol-3-yl)-N1-((R)-1-(3,4-dimethylphenyl)propyl)-N2-methyl-4-oxoazetidine-1,2-dicarboxamide]
IC50: < 10 nM

CC[C@@H](NC(=O)N1C(=O)[C@H](Cc2ccnc(N)c2)[C@H]1C(=O)N(C)c1nccn1C)c1cccc(F)c1C [Compound 1-86, (2S,3R)-3-((2-aminopyridin-4-yl)methyl)-N2-(1-methyl-1H-imidazol-2-yl)-N1-((R)-1-(3-fluoro-2-methylphenyl)propyl)-N2-methyl-4-oxoazetidine-1,2-dicarboxamide]
IC50: 100 to 1000 nM

CC[C@@H](NC(=O)N1C(=O)[C@H](Cc2ccnc(N)c2)[C@H]1C(=O)N(C)c1nccn1C)c1ccc(F)c(C)c1 [Compound 1-117, (2S,3R)-3-((2-aminopyridin-4-yl)methyl)-N2-(1-methyl-1H-imidazol-2-yl)-N1-((R)-1-(3-methyl-4-fluorophenyl)propyl)-N2-methyl-4-oxoazetidine-1,2-dicarboxamide]
IC50: < 10 nM

CC[C@@H](NC(=O)N1C(=O)[C@H](Cc2cc(C)nc(N)c2)[C@H]1C(=O)N(C)c1ccn(C)n1)c1ccc(C)cc1 [Compound 1-142, (2S,3R)-3-((2-amino-6-methylpyridin-4-yl)methyl)-N2-(1-methyl-1H-pyrazol-3-yl)-N1-((R)-1-(4-methylphenyl)propyl)-N2-methyl-4-oxoazetidine-1,2-dicarboxamide]
IC50: < 10 nM
